The target in the test is human M3 muscarinic acetylcholine receptor (hM3) (Homo sapiens, UniProt P20309). The test can be described thus: inhibition of [3H]NMS binding, intact CHO cells. The test is classed as cell-based.

The text below walks through data of paper PMC3752336 (Neurochemical research, 2008).

human M3 muscarinic acetylcholine receptor (hM3), sequence (P20309 whole entry): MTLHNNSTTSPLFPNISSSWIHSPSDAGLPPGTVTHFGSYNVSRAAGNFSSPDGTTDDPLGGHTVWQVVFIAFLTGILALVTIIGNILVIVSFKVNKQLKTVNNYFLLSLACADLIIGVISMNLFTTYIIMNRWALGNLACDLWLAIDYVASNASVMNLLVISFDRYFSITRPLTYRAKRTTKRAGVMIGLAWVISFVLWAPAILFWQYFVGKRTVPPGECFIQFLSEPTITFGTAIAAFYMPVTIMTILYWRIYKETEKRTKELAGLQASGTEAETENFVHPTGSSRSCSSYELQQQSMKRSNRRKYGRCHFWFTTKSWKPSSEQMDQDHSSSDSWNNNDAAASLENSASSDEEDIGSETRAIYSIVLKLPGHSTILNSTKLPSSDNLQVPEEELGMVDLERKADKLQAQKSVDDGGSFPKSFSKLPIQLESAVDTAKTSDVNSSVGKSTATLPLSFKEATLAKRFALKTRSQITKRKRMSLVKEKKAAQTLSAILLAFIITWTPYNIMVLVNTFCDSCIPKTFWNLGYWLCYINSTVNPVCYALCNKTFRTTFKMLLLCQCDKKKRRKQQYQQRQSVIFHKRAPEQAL

By IC50 is commonly meant the midpoint of a concentration-inhibition curve. `CCCCCCOc1nsnc1C1=CCCN(C)C1` [Xanomeline] showed an IC50 of 79.4 nM.
